Earlier results on 2 compounds are cited in patent publication US20140031310A1, “PHARMACEUTICAL COMPOSITIONS AND METHODS FOR MAKING AND USING THEM” (priority 2011, published 2014).

The conditions of data set [1]: in vivo.
The conditions of data set [2]: in vivo. The source holds these as a separate data set.

Turning to `CNC(=O)c1cc(Oc2ccc(NC(=O)Nc3ccc(Cl)c(C(F)(F)F)c3)cc2)ccn1` [sorafenib], the pharmacokinetic half-life in data set [1] is 20 to 24 h.
With bevacizumab: anti-VEGF mAb, in data set [2], the “leads to HFSR / skin toxicity” value was “Neither anti-VEGF mAbs (bevacizumab) nor PDGF-R inhibitors (e.g., imatinib) lead to HFSR”.
